The values that follow come from patent US8846655B2, “4-substituted-2-phenoxy-phenylamine delta opioid receptor modulators” (Janssen Pharmaceutica, NV, priority 2009, dated 2014).

pEC50, pKi: −log10 of the molar value. Some results are limits rather than exact numbers.

One experiment deals with T1, mu opioid receptor (Rattus norvegicus, UniProt P33535).
T1 construct: the forebrains were homogenized in Tris buffer in a Teflon®-glass homogenizer; from tissue; host or cells: rat forebrain membrane homogenate (male Wistar rats)
Description: Rat brain mu opioid receptor binding assay. The conditions noted are these: rat forebrain membranes, ~0.8 nM [3H]DAMGO; read-out: μ-binding Ki.

The target of a further experiment is T2, δ-opioid receptor (Mus musculus, UniProt P32300).
T2 construct: NG108-15 cell membranes were purchased from Applied Cell Sciences (Rockville, Md.)
Description: [35S]GTPγS δ-opioid receptor functional assay (EC50, relative efficacy, % inhibition). In kind it is biochemical. On the technique in general: Binding of GTPγS marks nucleotide exchange on a G protein.

In experiment [1] the target is T3, delta opioid receptor (Mus musculus, UniProt P32300).
T3 construct: NG108-15 cell membranes were purchased from Applied Cell Sciences (Rockville, Md.); host or cells: NG108-15 cell membranes (purchased)
Description: [35S]GTPγS binding assay in NG108-15 cell membranes (delta opioid functional assay), 200 nM screen. In kind it is biochemical. Particulars: 200 nM compound; relative to calculated max of SNC80 dose response. The method, then:
Methods: NG108-15 cell membranes were purchased from Applied Cell Sciences (Rockville, Md.). 5 mg/mL of membrane protein suspended in 10 mM TRIS-HCl pH 7.2, 2 mM EDTA, 10% sucrose. Membranes were maintained at 4-8° C. A 1 mL volume of membranes was added into 10 mL cold binding assay buffer. The assay buffer contained 50 mM Tris, pH 7.6, 5 mM MgCl2, 100 mM NaCl, 1 mM DTT and 1 mM EGTA. The membrane suspension was homogenized twice with a Polytron, and centrifuged at 3000 rpm for 10 min. The supernatant was then centrifuged at 18,000 rpm for 20 min. Ten mL assay buffer was added into the pellet containing tube. The pellet and buffer were mixed with a Polytron.
Incubation procedure: The pellet membranes (75 μg/mL) were preincubated with SPA (10 mg/mL) at 25° C. for 45 min in the assay buffer. The SPA (5 mg/mL) coupled with membranes (37.5 μg/mL) was then incubated with 0.1 nM [^35S] GTPγS in the same Tris buffer containing 100 μM GDP in total volume of […]. 200 nM of receptor agonists was used to stimulate [^35S]-GTPγS binding. The basal binding was tested in the absence of agonists and non-specific binding was tested in the presence of 10 μM unlabeled GTPγS.
Data % of Basal=(stimulated−non specific)*100/(basal−non specific). Relative Efficacy of a compound at 200 nM=(% of Basal of test compound at 200 nM)/(Calculated Max of SNC80 dose response. Curve in prism).

The test system of a further experiment is mice. Description: Mouse Graded Abdominal Irritant Test (GrAIT). In kind it is in vivo. The conditions noted are these: 10% Solutol, 30 min pretreatment. The method, then:
Test compound or vehicle was administered s.c. or p.o. to mice. Following the pretreatment time, an i.p. injection of 0.6% of acetic acid in 0.5 mL was administered. Five min after acetic acid administration, mice were placed into clear chambers and were continuously observed for 5 min. Behavioral responses including twisting and elongation of the body that extended through the hindlimbs were counted and averaged for the group of animals over the observation period.

Experiment [2] has as its target T4, delta opioid receptor (Rattus norvegicus, UniProt P33533).
T4 construct: the forebrains were homogenized in Tris buffer in a Teflon®-glass homogenizer; from tissue; host or cells: rat forebrain membrane homogenate (male Wistar rats)
Description: Rat brain delta opioid receptor binding assay. The conditions noted are these: rat forebrain membranes, 0.25 nM [3H]naltrindole; read-out: δ-binding (Naltrindole ligand) Ki. The method, then: Procedure: Male, Wistar rats (150-250 g, VAF, Charles River, Kingston, N.Y.) were killed by CO2, and their brains were removed and placed immediately in ice cold Tris HCl buffer (50 mM, pH 7.4). The forebrains were separated from the remainder of the brain by a coronal transection, beginning dorsally at the colliculi and passing ventrally through the midbrain-pontine junction. After dissection, the forebrains were homogenized in Tris buffer in a Teflon®-glass homogenizer. The homogenate was diluted to a concentration of 1 g of forebrain tissue per 80 mL Tris and centrifuged at 39,000×g for 10 min. The pellet was resuspended in the same volume of Tris buffer containing 5 mM MgCl2 with several brief pulses from a Polytron homogenizer. […] To each sample area 2×50 μL of Betaplate Scint scintillation fluid (LKB) was added and the radioactivity was quantified on a LKB (Wallac) 1205 BetaPlate liquid scintillation counter.
Analysis: The data from the scintillation counter were used to calculate either the % inhibition compared to control binding (when only a single concentration of test compound was evaluated) or a K1 value (when a range of concentrations was tested). Percent inhibition was calculated as: [(total dpm-test compound dpm)/(total dpm-nonspecific dpm)]*100. Kd and Ki values were calculated using GraphPad PRISM data analysis program.

T2 sequence (P32300 whole entry): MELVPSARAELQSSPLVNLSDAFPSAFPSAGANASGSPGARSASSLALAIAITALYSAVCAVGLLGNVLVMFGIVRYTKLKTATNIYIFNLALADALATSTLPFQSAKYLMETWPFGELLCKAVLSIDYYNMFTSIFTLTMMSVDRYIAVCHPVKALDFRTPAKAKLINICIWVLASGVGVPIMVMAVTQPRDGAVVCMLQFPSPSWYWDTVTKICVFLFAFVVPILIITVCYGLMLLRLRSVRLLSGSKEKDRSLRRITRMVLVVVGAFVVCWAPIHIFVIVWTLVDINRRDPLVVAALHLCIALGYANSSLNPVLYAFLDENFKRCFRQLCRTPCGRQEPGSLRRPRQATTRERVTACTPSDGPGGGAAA
T3 sequence (P32300 whole entry): as above
T1 sequence (P33535 whole entry): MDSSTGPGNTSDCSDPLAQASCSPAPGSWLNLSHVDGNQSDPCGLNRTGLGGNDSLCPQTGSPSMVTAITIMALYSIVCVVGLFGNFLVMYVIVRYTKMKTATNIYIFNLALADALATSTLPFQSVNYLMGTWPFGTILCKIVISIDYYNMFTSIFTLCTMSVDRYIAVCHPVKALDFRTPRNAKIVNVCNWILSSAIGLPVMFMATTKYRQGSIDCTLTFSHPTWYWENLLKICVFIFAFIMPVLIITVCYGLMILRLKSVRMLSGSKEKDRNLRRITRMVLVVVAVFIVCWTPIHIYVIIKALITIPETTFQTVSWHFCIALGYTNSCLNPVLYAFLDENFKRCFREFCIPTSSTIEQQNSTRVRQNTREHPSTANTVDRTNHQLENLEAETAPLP
T4 sequence (P33533 whole entry): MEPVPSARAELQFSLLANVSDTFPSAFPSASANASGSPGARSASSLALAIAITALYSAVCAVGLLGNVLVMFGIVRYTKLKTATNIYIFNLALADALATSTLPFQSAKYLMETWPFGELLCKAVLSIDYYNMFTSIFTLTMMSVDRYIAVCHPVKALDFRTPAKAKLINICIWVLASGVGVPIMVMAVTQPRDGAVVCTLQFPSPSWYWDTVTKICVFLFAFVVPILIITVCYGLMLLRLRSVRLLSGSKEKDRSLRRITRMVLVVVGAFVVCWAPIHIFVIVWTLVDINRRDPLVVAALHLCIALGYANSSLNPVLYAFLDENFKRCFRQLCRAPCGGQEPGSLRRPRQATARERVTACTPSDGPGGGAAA
Description for mu opioid receptor: Procedure: Male, Wistar rats (150-250 g, VAF, Charles River, Kingston, N.Y.) were killed by CO2, and their brains were removed and placed immediately in ice cold Tris HCl buffer (50 mM, pH 7.4). The forebrains were separated from the remainder of the brain by a coronal transection, beginning dorsally at the colliculi and passing ventrally through the midbrain-pontine junction. After dissection, the forebrains were homogenized in Tris buffer in a Teflon®-glass homogenizer. The homogenate was diluted to a concentration of 1 g of forebrain tissue per 80 mL Tris and centrifuged at 39,000×g for 10 min. The pellet was resuspended in the same volume of Tris buffer containing 5 mM MgCl2 with several brief pulses from a Polytron homogenizer. This particulate preparation was used for the mu opioid binding assays.
Description for δ-opioid receptor: Incubation procedure: The pellet membranes (75 μg/mL) were preincubated with SPA (10 mg/mL) at 25° C. for 45 min in the assay buffer. […] GTPγS in the same Tris buffer containing 100 μM GDP in total volume of 200 pt. 200 nM of receptor agonists was used to stimulate [^35S]-GTPγS binding. The basal binding was tested in the absence of agonists and non-specific binding was tested in the presence of 10 μM unlabeled GTPγS.
Compounds were tested for function as antagonists by evaluating their potential to inhibit agonist-stimulated GTPγS binding. Radioactivity was quantified on a Packard TopCount.

Consider `COc1ccc(Oc2cc(-c3ccccc3)ccc2NC[C@@H]2CCCN2)cc1` [Cpd 35, (S)-[3-(4-Methoxy-phenoxy)-biphenyl-4-yl]-pyrrolidin-2-ylmethyl-amine], for which the pKi at mu opioid receptor is under 5.00.
Take `CCN(CC)C(=O)CCc1ccc(NC[C@@H]2CCCN2)c(Oc2ccc(OC)cc2)c1` [Cpd 2, N,N-Diethyl-3-[3-(4-methoxyphenoxy)-4-{[(2S)-pyrrolidin-2-ylmethyl]amino}phenyl]propanamide]: the “GTγPS δ-opioid receptor Rel Efficacy” value on δ-opioid receptor was 0.8333.
In the case of `CCN(CC)C(=O)c1cccc(Oc2cc(-c3ccccc3)ccc2NC[C@@H]2CCCN2)c1` [Cpd 34], at mu opioid receptor, the pKi is under 5.00.
Take `COc1ccc(Oc2cc(-c3cncc(F)c3)ccc2NC[C@@H]2CCCN2)cc1` [Cpd 43]: the “GTPγS δ-RelEfficacy @200 nM” value on delta opioid receptor [1] is listed as 0.43. Besides, the “GTγPS δ-opioid receptor Rel Efficacy” value on δ-opioid receptor was 1.0908.
Consider `COc1ccc(Oc2cc(CCc3ccccc3)ccc2NC[C@@H]2CCCN2)cc1` [Cpd 5], for which the pKi on mu opioid receptor is under 5.00.
In the case of `CCN(CC)C(=O)c1ccc(NC[C@@H]2CCCN2)c(Oc2ccccc2OC)c1` [Cpd 11], the pKi at mu opioid receptor was under 5.00.
Regarding `COc1ccc(Oc2cc(CCc3cccc(OC)c3)ccc2NC[C@@H]2CCCN2)cc1` [Cpd 4], on mu opioid receptor, the pKi was under 5.00.
On to `COc1ccc(Oc2cc(CCc3ccc(F)cc3)ccc2NC[C@@H]2CCCN2)cc1` [Cpd 6], for which, on mu opioid receptor, the negative logarithm of the Ki (pKi) is under 5.00.
In the case of `CNCCNc1ccc(Oc2ccc(OC)cc2)cc1Oc1ccc(OC)cc1` [Cpd 63, N-[2,4-Bis-(4-methoxy-phenoxy)-phenyl]-N′-methyl-ethane-1,2-diamine], at mu opioid receptor, the negative logarithm of the Ki (pKi) was under 5.00.
Turning to `COc1ccc(Oc2cc(-c3cncc(OC)c3)ccc2NC[C@@H]2C[C@@H](F)CN2)cc1` [Cpd 27], the negative-log Ki (pKi) at mu opioid receptor is under 5.00.
Take `COc1ccc(Oc2cc(-c3ccsc3)ccc2NC[C@@H]2CCCN2)cc1` [Cpd 41]: the pKi on mu opioid receptor is under 5.00.
As to `COc1ccc(Oc2cc(-c3ccccc3)ccc2N2CCNCC2)cc1` [Cpd 46, 1-[3-(4-Methoxy-phenoxy)biphenyl-4-yl]piperazine], the pKi on mu opioid receptor was under 5.00.
As to `NC(=O)c1cccc(Oc2cc(-c3ccccc3)ccc2NC[C@@H]2CCCN2)c1` [Cpd 30], the “GTγPS δ-opioid receptor Rel Efficacy” value on δ-opioid receptor is 0.2668.
On to `COc1cccc(Oc2cc(-c3ccccc3)ccc2NC[C@@H]2CCCN2)c1` [Cpd 15], for which, at mu opioid receptor, the pKi was under 5.00.
In the case of `Clc1ccc(Oc2cc(-c3ccccc3)ccc2NC[C@@H]2CCCN2)c(Cl)c1` [Cpd 22], the pKi on mu opioid receptor was under 5.00.
Take `O=C(O)c1cccc(Oc2cc(-c3ccccc3)ccc2NC[C@@H]2CCCN2)c1` [Cpd 32]: the pKi at mu opioid receptor is under 5.00.
As for `COC(=O)c1ccc(Oc2cc(-c3ccccc3)ccc2NC[C@@H]2CCCN2)cc1` [Cpd 20], at mu opioid receptor, the pKi is under 5.00.
Regarding `COc1ccc(Oc2cc(-c3cncnc3)ccc2NC[C@@H]2CCCN2)cc1` [Cpd 42], the “GTPγS δ-RelEfficacy @200 nM” value at delta opioid receptor [1] is 0.39.
As to `Oc1ccc(Oc2cc(-c3cccnc3)ccc2NC[C@@H]2CCCN2)cc1` [Cpd 45, (S)-4-{5-Pyridin-3-yl-2-[(pyrrolidin-2-ylmethyl)-amino]-phenoxy}-phenol], the “GTγPS δ-opioid receptor Rel Efficacy” value at δ-opioid receptor worked out at 0.627.
As to `COc1ccc(Oc2cc(-c3cncc(SC)c3)ccc2NC[C@@H]2C[C@@H](F)CN2)cc1` [Cpd 26], the “GTPγS δ-RelEfficacy @200 nM” value on delta opioid receptor [1] is 0.7. Besides, on δ-opioid receptor, the “GTγPS δ-opioid receptor Rel Efficacy” value was determined as 1.0716.
On to `c1ccc(Oc2cc(-c3ccccc3)ccc2NC[C@@H]2CCCN2)cc1` [Cpd 14], for which, at mu opioid receptor, the negative logarithm of the Ki (pKi) is under 5.00.
For `COc1ccc(Oc2cc(-c3cccc4ccccc34)ccc2NC[C@@H]2CCCN2)cc1` [Cpd 37], on mu opioid receptor, the pKi is under 5.00.
Consider `COc1ccc(Oc2cc(CCc3cccc(F)c3)ccc2NC[C@@H]2CCCN2)cc1` [Cpd 7], for which, at mu opioid receptor, the pKi was under 5.00.
On to `CCN(CC)C(=O)/C=C/c1ccc(NC[C@@H]2CCCN2)c(Oc2ccc(OC)cc2)c1` [Cpd 1, (2E)-N,N-Diethyl-3-[3-(4-methoxyphenoxy)-4-{[(2S)-pyrrolidin-2-ylmethyl]amino}phenyl]prop-2-enamide], for which, at δ-opioid receptor, the “GTγPS δ-opioid receptor Rel Efficacy” value is 0.8328. Moreover, in the experiment with mice (30 mg/kg s.c.), the “# abdominal stretches (cpd)” value turned out to be 10.9.
`FC(F)(F)Oc1ccc(Oc2cc(-c3ccccc3)ccc2NC[C@@H]2CCCN2)cc1` [Cpd 17]: at mu opioid receptor, the pKi was under 5.00.
For the compound `Clc1cccc(Cl)c1Oc1cc(-c2ccccc2)ccc1NC[C@@H]1CCCN1` [Cpd 18], the pKi at mu opioid receptor is under 5.00. Further, the “GTγPS δ-opioid receptor Rel Efficacy” value on δ-opioid receptor came to 0.763.
For the compound `N#Cc1cccc(Oc2cc(-c3ccccc3)ccc2NC[C@@H]2CCCN2)c1` [Cpd 13], the pKi at mu opioid receptor is under 5.00.
Regarding `COc1ccc(Oc2ccc(NC[C@@H](N)CO)c(Oc3ccc(OC)cc3)c2)cc1` [Cpd 55], the pKi on mu opioid receptor is under 5.00.
Still for that read-out and setting: the figure for `COc1ccc(Oc2cc(-c3ccoc3)ccc2NC[C@@H]2CCCN2)cc1` [Cpd 40] is under 5.00; for `COC(=O)c1cccc(Oc2cc(-c3ccccc3)ccc2NC[C@@H]2CCCN2)c1` [Cpd 21] it is under 5.00.
For `COc1ccc(Oc2cc(-c3cncc(C#N)c3)ccc2NC[C@@H]2CCCN2)cc1` [Cpd 44], at delta opioid receptor [1], the “GTPγS δ-RelEfficacy @200 nM” value is given as 0.45. Moreover, the “GTγPS δ-opioid receptor Rel Efficacy” value at δ-opioid receptor turned out to be 1.1554.
`CCN(CC)C(=O)c1ccc(NC[C@@H]2CCCN2)c(Oc2ccc(OC)cc2)c1` [Cpd 10]: the “# abdominal stretches (cpd)” value in the experiment on mice (30 mg/kg p.o.) is listed as 19; in the experiment on mice (30 mg/kg s.c.), 11; in the experiment on mice (100 mg/kg p.o.), 17.9; in the experiment with mice (300 mg/kg p.o.), 21.2.
Take `COc1ccc(Oc2cc(-c3cccnc3)ccc2NC[C@@H]2CCCN2)cc1` [Cpd 39]: the “GTγPS δ-opioid receptor Rel Efficacy” value at δ-opioid receptor turned out to be 0.9245.
Consider `Fc1ccc(Oc2cc(-c3ccccc3)ccc2NC[C@@H]2CCCN2)cc1` [Cpd 16], for which the pKi on mu opioid receptor is under 5.00.
Take `COc1ccc(Oc2cc(-c3ccncc3)ccc2NC[C@@H]2CCCN2)cc1` [Cpd 38]: the pKi on delta opioid receptor [2] was 7.81. The pKi on mu opioid receptor is 5.36. Moreover, on δ-opioid receptor, the pEC50 was 6.32 and the “GTγPS δ-opioid receptor Rel Efficacy” value was 0.8323. For the same compound, on δ-opioid receptor (read-out: GTPγS δ-opioid receptor % Inh @10 μM), the inhibition at 10 µM is 16.4%.
`COc1ccc(Oc2cc(-c3cncc(C#N)c3)ccc2NC[C@@H]2C[C@@H](F)CN2)cc1` [Cpd 24, (2S,4R)-5-[4-[(4-Fluoro-pyrrolidin-2-ylmethyl)-amino]-3-(4-methoxy-phenoxy)-phenyl]-nicotinonitrile]: the “GTPγS δ-RelEfficacy @200 nM” value on delta opioid receptor [1] is on record as 1.01. Moreover, the “GTγPS δ-opioid receptor Rel Efficacy” value on δ-opioid receptor turned out to be 1.0158.
In the case of `COc1ccc(Oc2cc(-c3cncc(F)c3)ccc2NC[C@@H]2C[C@@H](F)CN2)cc1` [Cpd 25], at delta opioid receptor [1], the “GTPγS δ-RelEfficacy @200 nM” value was 0.78. Moreover, on δ-opioid receptor, the “GTγPS δ-opioid receptor Rel Efficacy” value came out at 1.0217.
With `COc1ccc(Oc2cc(-c3cncc(C)c3)ccc2NC[C@@H]2C[C@@H](F)CN2)cc1` [Cpd 28], the “GTγPS δ-opioid receptor Rel Efficacy” value on δ-opioid receptor was 0.8756.

What is called pKi is the negative decadic logarithm of the Ki, by convention in mol/L. A word on the pEC50: it is −log10 of the EC50, conventionally taken in molar units. Lower therefore signals a high EC50.
